Among the data in patent US20050119304A1, “Urea derivatives” (priority 2001, published 2005) are IC50 and melting point values, retold here.

The term melting point denotes the temperature of the solid-liquid transition.

One data set addresses T1, human VR1 (Homo sapiens, UniProt Q8NER1).
T1 construct: The cloned hVR1 cDNA was constructed with pcDNA3 vector and transfected into a CHOluc9aeq cell line; expressed in transfected cells
As to the kind of experiment: Capsaicin-induced Ca2+ influx in the human VR1-transfected CHO cell line (Assay 1). It is filed as cell-based. Conditions: read-out: hVR1 class. The text has this:
[Measurement of Capsaicin-Induced Ca^2+ Influx in the Human VR1-Transfected CHO Cell Line] (Assay 1)
(1) Establishment of the Human VR1-CHOluc9aeq Cell Line
Human vanilloid receptor (hVR1) cDNA was cloned from libraries of axotomized dorsal root ganglia (WO2000/29577). The cloned hVR1 cDNA was constructed with pcDNA3 vector and transfected into a CHOluc9aeq cell line. The cell line contains aequorin and CRE-luciferase reporter genes as read-out signals. The transfectants were cloned by limiting dilution in selection medium (DMEM/F12. medium (Gibco BRL) supplemented with 10% FCS, 1.4 mM Sodium pyruvate, 20 mM HEPES, 0.15% Sodium bicarbonate, 100 U/ml penicillin, 100 μg/ml strept mycin, 2 mM glutamine, non-essential amino acids and 2 mg/ml G418). Ca^2+ influx was examined in the capsaicin-stimulated clones. A high responder clone was selected and used for further experiments in the project. The human VR1-CHOluc9aeq cells were maintained in the selection medium and passaged every 3-4 days at 1-2.5×10^5 cells/flask ([…]).
(2) Measurement of Ca^2+ Influx Using FDSS-3000
Human VR1-CHOluc9aeq cells were suspended in a culture medium which is the same as the selection medium except for G418 and seeded at a density of 1,000 cells per well into 384-well plates (black walled clear-base/Nalge Nunc International). Following the culture for 48 hrs the medium was changed to 2 μM Fluo-3 AM (Molecular Probes) and 0.02% Puronic F-127 in assay buffer (Hank's balanced salt solution (HBSS), 17 mM HEPES (pH7.4), 1 mM Probenecid, 0.1% BSA) and the cells were incubated for 60 min at 25° C. After washing twice with assay buffer the cells were incubated with a test compound or vehicle for 20 min at 25° C. Mobilization of cytoplasmic Ca^2+ was measured by FDSS-3000 (λex=488 nm, λem=540 nm/Hamamatsu Photonics) for 60 sec after the stimulation with 10 nM capsaicin. Integral R was calculated and compared with controls.
The data corresponds to the compounds as yielded by solid phase synthesis and thus to levels of purity of about 40 to 90%.

T1 sequence (Q8NER1 whole entry): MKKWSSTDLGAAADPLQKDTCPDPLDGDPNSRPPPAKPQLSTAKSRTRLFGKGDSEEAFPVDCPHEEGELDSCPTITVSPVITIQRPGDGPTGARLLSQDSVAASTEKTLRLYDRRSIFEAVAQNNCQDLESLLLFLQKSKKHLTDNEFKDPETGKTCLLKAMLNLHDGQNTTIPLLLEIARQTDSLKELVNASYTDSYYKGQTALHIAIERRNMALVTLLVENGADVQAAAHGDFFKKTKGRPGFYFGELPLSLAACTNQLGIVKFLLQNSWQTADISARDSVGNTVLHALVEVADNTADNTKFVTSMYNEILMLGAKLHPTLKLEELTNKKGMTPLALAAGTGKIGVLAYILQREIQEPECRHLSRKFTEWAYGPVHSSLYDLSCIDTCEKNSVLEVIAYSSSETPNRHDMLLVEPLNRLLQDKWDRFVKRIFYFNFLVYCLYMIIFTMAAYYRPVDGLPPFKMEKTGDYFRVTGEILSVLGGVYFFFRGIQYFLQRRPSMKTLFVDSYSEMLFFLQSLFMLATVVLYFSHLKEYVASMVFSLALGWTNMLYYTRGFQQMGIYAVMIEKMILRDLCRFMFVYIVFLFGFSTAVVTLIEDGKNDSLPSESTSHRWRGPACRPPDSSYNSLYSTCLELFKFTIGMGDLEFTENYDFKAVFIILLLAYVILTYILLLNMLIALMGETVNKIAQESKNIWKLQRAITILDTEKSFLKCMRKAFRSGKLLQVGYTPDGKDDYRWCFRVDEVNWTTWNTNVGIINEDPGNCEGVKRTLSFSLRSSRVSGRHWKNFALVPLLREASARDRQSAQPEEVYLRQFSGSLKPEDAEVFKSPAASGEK

`Cc1nc2cc(NC(=O)Nc3ccc(C(C)C)cc3)ccc2s1` [Example 39] gave a melting point of 208 to 210 °C. Further, the IC50 on human VR1 was below 100 nM.
The corresponding values for `Cc1nc2cc(NC(=O)Nc3cccc4ccccc34)ccc2s1` [Example 40] are above 250 °C and below 100 nM.
For `O=C(Nc1cccc(C(F)(F)F)c1)Nc1cccc2[nH]ccc12` [Example 41] the same measures were 211 to 213 °C and below 100 nM.
In turn, `CSc1cccc(NC(=O)Nc2ccc3c(c2)S(=O)(=O)C=C3)c1` [Example 42] gave a melting point of 212 to 213 °C. On human VR1, the IC50 was 100 to 500 nM.
On to `O=C(Nc1ccc(F)cc1)Nc1ccc2c(c1)S(=O)(=O)C=C2` [Example 43], for which the melting point is 242 to 243 °C. The IC50 at human VR1 is 500 to 1000 nM.
For `COc1cccc(NC(=O)Nc2ccc3c(c2)S(=O)(=O)C=C3)c1` [Example 45] the same measures were 206 to 208 °C and 500 to 1000 nM.
As to `O=C(Nc1cccc(-c2ccccc2)c1)Nc1ccc2[nH]ccc2c1` [Example 46], the melting point was in the range of 204 to 206 °C. For the same molecule, the IC50 at human VR1 is 100 to 500 nM.
`Cc1nc2cc(NC(=O)Nc3ccc(Cl)c(C(F)(F)F)c3)ccc2[nH]1` [Example 48] returned a melting point of 162 to 166 °C. Also, on human VR1, the IC50 was in the range of 500 to 1000 nM.
In the case of `Cc1nc2cc(NC(=O)Nc3ccc(Oc4ccccc4)cc3)ccc2[nH]1` [Example 49], the melting point lay within 243 to 245 °C. Further, on human VR1, the IC50 was 500 to 1000 nM.
In turn, `Cc1nc2cc(NC(=O)Nc3ccc(C(C)C)cc3)ccc2[nH]1` [Example 50] displayed a melting point above 250 °C. The IC50 at human VR1 lay within 500 to 1000 nM.
In turn, `Cc1nc2cc(NC(=O)Nc3ccc(C)c(Cl)c3)ccc2[nH]1` [Example 51] gave a melting point of 200 to 204 °C. Besides, the IC50 at human VR1 fell in the range of 500 to 1000 nM.
The molecule `Cc1nc2cc(NC(=O)Nc3ccc(Br)cc3)ccc2[nH]1` [Example 52] returned a melting point above 250 °C. Besides, the IC50 on human VR1 lay within 500 to 1000 nM.
The corresponding values for `Cc1nc2c(NC(=O)Nc3ccc(Cl)c(C(F)(F)F)c3)cccc2[nH]1` [Example 53] are 189 to 191 °C and below 100 nM.
Molecule `Cc1nc2c(NC(=O)Nc3ccc(Oc4ccccc4)cc3)cccc2[nH]1` [Example 54] came in with a melting point of 223 to 225 °C. Moreover, at human VR1, the IC50 was below 100 nM.
Take `Cc1nc2c(NC(=O)Nc3ccc(C(C)C)cc3)cccc2[nH]1` [Example 55]: the melting point lay in the range of 216 to 218 °C. Moreover, the IC50 at human VR1 was 100 to 500 nM.
Consider `Cc1nc2cc(NC(=O)Nc3cccc(-c4ccccc4)c3)ccc2s1` [Example 56], for which the melting point is 216 to 219 °C. In addition, the IC50 on human VR1 lay in the range of 100 to 500 nM.
As to `O=C(Nc1ccc(Cl)c(C(F)(F)F)c1)Nc1ccc2[nH]cnc2c1` [Example 57], the melting point was in the range of 218 to 220 °C. Also, on human VR1, the IC50 lay within 100 to 500 nM.
Turning to `O=C(Nc1ccc(Oc2ccccc2)cc1)Nc1ccc2[nH]cnc2c1` [Example 58], the melting point was in the range of 235 to 237 °C. The IC50 on human VR1 fell in the range of 100 to 500 nM.
In the case of `CC(C)c1ccc(NC(=O)Nc2ccc3[nH]cnc3c2)cc1` [Example 59], the melting point is 226 to 229 °C. Also, the IC50 at human VR1 lay within 500 to 1000 nM.
`O=C(Nc1ccc(Br)cc1)Nc1cccc2[nH]ccc12` [Example 60] showed a melting point of 238 to 240 °C. The IC50 on human VR1 lay within 100 to 500 nM.
Consider `COc1ccc(NC(=O)Nc2cccc3[nH]ccc23)cc1` [Example 61], for which the melting point lay within 230 to 232 °C. For the same molecule, the IC50 on human VR1 fell in the range of 500 to 1000 nM.
Molecule `O=C(Nc1cccc2ccccc12)Nc1cccc2[nH]ccc12` [Example 62] displayed a melting point above 250 °C. The IC50 on human VR1 was below 100 nM.
As for `O=C(Nc1ccc(Cl)c(Cl)c1)Nc1cccc2[nH]ccc12` [Example 63], the melting point was in the range of 244 to 245 °C. In addition, the IC50 on human VR1 is below 100 nM.
For `O=C(Nc1ccc(F)cc1F)Nc1cccc2[nH]ccc12` [Example 64] the same measures were 247 to 248 °C and 500 to 1000 nM.
The molecule `Cc1ccc(NC(=O)Nc2cccc3[nH]ccc23)cc1Cl` [Example 65] displayed a melting point of 246 to 247 °C. For the same molecule, the IC50 on human VR1 was below 100 nM.
In turn, `CC(C)c1ccc(NC(=O)Nc2cccc3[nH]ccc23)cc1` [Example 66] came in with a melting point of 222 to 224 °C. The IC50 on human VR1 was below 100 nM.
As to `O=C(Nc1ccc(F)cc1)Nc1ccc2[nH]ncc2c1` [Example 67], the melting point was above 250 °C. Also, at human VR1, the IC50 lay in the range of 500 to 1000 nM.
Molecule `O=C(Nc1cc(C(F)(F)F)ccc1Cl)Nc1cccc2[nH]ccc12` [Example 68] returned a melting point of 211 to 213 °C. For the same molecule, the IC50 at human VR1 was below 100 nM.
Molecule `O=C(Nc1ccc(Oc2ccccc2)cc1)Nc1ccc2[nH]ccc2c1` [Example 69] registered a melting point of 231 to 233 °C. Moreover, the IC50 on human VR1 fell in the range of 100 to 500 nM.
Take `Cc1cccc(NC(=O)Nc2ccc3[nH]ccc3c2)c1` [Example 70]: the melting point is 250 °C. Besides, the IC50 on human VR1 is 500 to 1000 nM.
Take `CSc1cccc(NC(=O)Nc2ccc3[nH]ccc3c2)c1` [Example 71]: the melting point was 236 to 239 °C. For the same molecule, the IC50 on human VR1 lay in the range of 100 to 500 nM.
The molecule `O=C(Nc1ccc(F)cc1)Nc1ccc2[nH]ccc2c1` [Example 72] gave a melting point of 243 to 245 °C. For the same molecule, on human VR1, the IC50 lay within 500 to 1000 nM.
The corresponding values for `COc1cccc(NC(=O)Nc2ccc3[nH]ccc3c2)c1` [Example 73] are 227 to 229 °C and 500 to 1000 nM.
For `O=C(Nc1ccc(Br)cc1)Nc1ccc2[nH]ccc2c1` [Example 74] the same measures were above 250 °C and 500 to 1000 nM.
Turning to `O=C(Nc1ccc(Oc2ccccc2)cc1)Nc1ccc2[nH]c(C(F)(F)F)nc2c1` [Example 75], the melting point lay within 239 to 241 °C. In addition, the IC50 at human VR1 lay in the range of 500 to 1000 nM.
In turn, `Cc1cccc(NC(=O)Nc2ccc3[nH]c(C(F)(F)F)nc3c2)c1` [Example 76] yielded a melting point of 245 to 247 °C. The IC50 at human VR1 was 500 to 1000 nM.
`CSc1cccc(NC(=O)Nc2ccc3[nH]c(C(F)(F)F)nc3c2)c1` [Example 77]: the melting point was 226 to 228 °C. In addition, the IC50 at human VR1 is 500 to 1000 nM.
The molecule `O=C(Nc1ccc(F)cc1)Nc1ccc2[nH]c(C(F)(F)F)nc2c1` [Example 78] yielded a melting point of 242 to 243 °C. For the same molecule, the IC50 at human VR1 lay within 500 to 1000 nM.
For `COc1cccc(NC(=O)Nc2ccc3[nH]c(C(F)(F)F)nc3c2)c1` [Example 79] the same measures were 233 to 237 °C and 500 to 1000 nM.
`O=C(Nc1ccc(Br)cc1)Nc1ccc2[nH]c(C(F)(F)F)nc2c1` [Example 80] gave a melting point above 250 °C. The IC50 at human VR1 lay in the range of 500 to 1000 nM.
Molecule `O=C(Nc1ccc(Cl)c(Cl)c1)Nc1ccc2[nH]c(C(F)(F)F)nc2c1` [Example 81] had a melting point of 240 to 242 °C. Further, the IC50 at human VR1 lay within 500 to 1000 nM.
As for `CSc1ccc(NC(=O)Nc2cccc3[nH]ccc23)cc1` [Example 82], the melting point is 228 to 231 °C. For the same molecule, at human VR1, the IC50 lay within 500 to 1000 nM.
With `CC(=O)c1cccc(NC(=O)Nc2cccc3[nH]ccc23)c1` [Example 83], the melting point is 205 to 207 °C. On human VR1, the IC50 was in the range of 500 to 1000 nM.
